{
  "source": "patent US9993492B2",
  "about": "“Lysophospholipids and lysophospholipid analogues against honeybee brood diseases” (University of Graz, priority 2013, dated 2018)",
  "key": {"honeybee larvae [1]": {"test_system": "honeybee larvae", "experiment": "LPC tolerance in non-infected artificially reared larvae, mortality until day 12", "assay_type": "in vivo, Apis mellifera", "conditions": "LPC 10 μg/larva on day 1, 2 and 3, no spores, replicates separated by /, Nlarvae 70/48/47/48/40"}, "honeybee larvae [2]": {"test_system": "honeybee larvae", "assay_type": "in vivo", "conditions": "LPC 10 μg/larva added on day 1, Nlarvae 192", "protocol": "First instar larvae were transferred into plastic queen cups and fed the following diets: On the first day 10 μL of diet containing 6% glucose, 6% fructose, 1% yeast extract and 50% royal jelly were fed. Test substances (1-O-oleoyl-sn-glycero-3-phosphocholine (oleoyl-LPC), stearic acid, lysophosphatidylinositol and linoleic acid) were added to the first diet in amounts of 0.5 to 10 μg/larvae. For infection with spores of Paenibacillus larvae, larvae were grafted into 5 μL of diet containing test substances and subsequently 5 μL of diet with about 50 added Pl spores were given. Larvae were not fed on the second day to assure the consumption of the given diet. On the third day 20 μL of diet containing 7.5% glucose, 7.5% fructose, 1.5% yeast extract and 50% royal jelly were fed. Amounts of 30, 40 and 60 μL of diet composed of 9% glucose, 9% fructose, 2% yeast extract and 50% royal jelly were fed on the 4th, 5th and 6th day (method modified after Aupinel et al. [Aupinel et al. 2005. Bull Insectol 58:107-111]. Larvae were incubated at 34.5° C. and 95% relative humidity which was reduced to 80% on day 7. The mortality was checked daily for the first 7 days and when individuals emerged from queen cups at day 18 after the transfer into cups. To reduce the time for sporulation of Pl in the lab for security reasons, infection tests with Pl spores were stopped at day 7 with some experiments extend to day 12.\nLarvae were fed according to a slightly modified rearing method of Aupinel et al., (2005). Larvae were fed for 6 days with different amounts of diets which always contained 50% of an aqueous solution (A, B, C) and 50% royal jelly (w/w). The solutions consisted of yeast extract (A=2%, B=3%, C=4%), glucose and fructose (A=12%, B=15%, C=18% each). 50 g portions of royal jelly (purchased from the Styrian school of beekeepers) were freeze stored at −20° C. Once a day all components of the needed diet were mixed freshly, warmed and fed to the larvae with a micro-pipette. On day 1 and 2 each larva was fed with 10 μL of diet A, on day three with 20 μL of diet B, on day four (30 μL), five (40 μL) and six (50 μL) with diet C. This way, each larva was supported with a total amount of 160 μL of food. The test compounds (see Table 4) were added each at the respective concentration on day 1, i.e. stearic acid (10 μg/larva), lysophosphatidylinositol (5 μg/larva), linoleic acid (12 μg/larva) and oleyol-LPC (10 μg/larva). Each larva was checked for its state of health under the binocular before feeding. A larva was defined healthy when movements of spiracles could be observed and it was shiny and plump. Cups with dead larvae were removed from the plate to prevent infections. To avoid microbial contamination, feeding took place under a laminar flow. Larvae were incubated at 34.5° C. and 90% RH. The mortality rates of the larvae are given below in table 4.1."}, "Paenibacillus larvae": {"test_system": "Paenibacillus larvae", "experiment": "Antimicrobial assay in BHI liquid medium, vegetative forms of Paenibacillus larvae (MIC)", "assay_type": "cell-based", "conditions": "for MIC: Paenibacillus larvae", "protocol": "For the evaluation of certain fatty acids and phospholipids, overnight cultures of vegetative forms of Pl were used (for results see Table 1.1).\nAs test organisms, several different strains of Paenibacillus larvae were used.\nOvernight cultures of the vegetative forms of bacteria were prepared in BHI (brain heart infusion) liquid medium.\nFrom these overnight cultures, an inoculum of 50 μl is added to 1.0 ml of BHI liquid medium to perform the bacterial test in liquid medium. The compound 1-O-oleoyl-sn-glycero-3-phosphocholine (oleoyl-LPC) together with a positive control was then added at concentrations of 2, 5 and 10 ppm and the test tubes were incubated for 24 h at 34.5° C. Then, the extinction of the solution was measured photometrically."}, "[3]": {"test_system": "spores of Paenibacillus larvae", "experiment": "Spore assay in BHI liquid medium with plating for CFU", "assay_type": "cell-based", "conditions": "lowest investigated dose (5 ppm); 114.6±28.4 spores per vial; 4 and 6 days", "protocol": "A stock solution containing spores at a known concentration is used to inoculate c. 100 spores/mL medium. This assay is carried out in 20 mL cultivation tubes containing 1.0 mL of BHI (brain heart infusion) liquid medium. To this medium containing c. […] spores, test compounds are added at different concentrations (e.g., 2, 5 and 10 ppm), together with positive control (penicillin G at 5 ppm) and blank control.\nTo verify inoculation with c. 100 spores/mL, tubes containing BHI+spores are plated out immediately on agar plates to assess the number of colony forming units (CFU) after 6 days of incubation at 34.5° C.\nFor the control of viability of the spores, the turbidity (due to germination of spores and formation of vegetative forms) of tubes containing BHI+spores is evaluated on day 4.\nFor the test probes, bacterial growth is evaluated on day 4 and 6. For those tubes which are negative for bacterial growth, the whole medium (c. 1 mL) is plated onto agar plates and evaluated for CFUs after 2 and 6 days of incubation. CFUs visible after two days result from vegetative forms, while CFUs appearing after […] stem from spores.\nThe results of these tests allow identifying whether the tested compounds have an effect on spore germination in liquid medium and the viability of the spores as assessed by their germination on agar plates. […]"}},
  "note": "Where two headings read alike, the source gives them in different places.",
  "data": [
    {"smiles": "CCCCCCCC/C=C\\CCCCCCCC(=O)OC[C@@H](O)COP(=O)([O-])OCC[N+](C)(C)C", "note": "[1-O-oleoyl-sn-glycero-3-phosphocholine]", "values": [
      {"measurement": "Ndead larvae total", "setting": "honeybee larvae [1]; days 1-12", "result": "9/6/5/3/3"},
      {"measurement": "Ndead larvae day 1", "setting": "honeybee larvae [1]", "result": "0/0/0/0/0"},
      {"measurement": "Ndead larvae day 2", "setting": "honeybee larvae [1]", "result": "0/2/0/0/0"},
      {"measurement": "Ndead larvae day 3", "setting": "honeybee larvae [1]", "result": "0/0/3/0/0"},
      {"measurement": "Ndead larvae day 4", "setting": "honeybee larvae [1]", "result": "1/0/1/0/1"},
      {"measurement": "Ndead larvae day 5", "setting": "honeybee larvae [1]", "result": "0/0/0/0/0"},
      {"measurement": "Ndead larvae day 6", "setting": "honeybee larvae [1]", "result": "1/1/0/0/1"},
      {"measurement": "Ndead larvae day 7", "setting": "honeybee larvae [1]", "result": "0/0/1/0/0"},
      {"measurement": "Ndead larvae day 8", "setting": "honeybee larvae [1]", "result": "2/0/0/0/0"},
      {"measurement": "Ndead larvae day 9", "setting": "honeybee larvae [1]", "result": "1/2/0/3/0"},
      {"measurement": "Ndead larvae day 10", "setting": "honeybee larvae [1]", "result": "2/0/0/0/0"},
      {"measurement": "Ndead larvae day 11", "setting": "honeybee larvae [1]", "result": "0/1/0/0/1"},
      {"measurement": "Ndead larvae day 12", "setting": "honeybee larvae [1]", "result": "2/0/0/0/0"},
      {"measurement": "Ndead larvae day 1", "setting": "honeybee larvae [2]", "result": 0},
      {"measurement": "Ndead larvae day 2", "setting": "honeybee larvae [2]", "result": 7},
      {"measurement": "Ndead larvae day 3", "setting": "honeybee larvae [2]", "result": 1},
      {"measurement": "Ndead larvae day 4", "setting": "honeybee larvae [2]", "result": 1},
      {"measurement": "Ndead larvae day 5", "setting": "honeybee larvae [2]", "result": 0},
      {"measurement": "Ndead larvae day 6", "setting": "honeybee larvae [2]", "result": 0},
      {"measurement": "Ndead larvae day 7", "setting": "honeybee larvae [2]", "result": 4},
      {"measurement": "Ndead larvae total", "setting": "honeybee larvae [2]; days 1-7", "result": 13},
      {"measurement": "MIC", "setting": "Paenibacillus larvae; 24 h, vegetative forms of Pl, liquid medium, read-out: MIC (ppm)", "result": "2 to 5", "unit": "µg/mL"},
      {"measurement": "MIC", "setting": "Paenibacillus larvae; in vitro, read-out: in vitro Pl inhibitory activity, MIC", "result": 2.5, "unit": "µg/mL"},
      {"measurement": "MIC", "setting": "Paenibacillus larvae; vegetative forms of Pl, liquid medium, read-out: MIC", "result": "> 3.8", "unit": "µM"},
      {"measurement": "inhibitory / antibacterial activity against Pl (in words)", "setting": "Paenibacillus larvae; in vitro", "result": "good in vitro Pl inhibitory activity"},
      {"measurement": "killing of vegetative forms upon germination of spores", "setting": "[3]", "result": "all vegetative forms are killed"}
    ]}
  ]
}
